“Also recorded” adds a separate entry of the source.
Tests used:
systemic TNF-a and IL-6 [1] = test: Systemic cytokines after vaccination with NF-kB inhibitor, CpG and ovalbumin (Example 2); type: in vivo, mouse; conditions: one hour post-vaccination
RAW macrophages = test: IL-6 expression of RAW macrophages with LPS and NF-kB inhibitors (Example 2)
systemic TNF-a and IL-6 [2] = test: Systemic cytokines, AddaVax vaccines with CpG or Pam3CSK4 (Example 2); type: in vivo, mouse; conditions: CpG or Pam3CSK4, ovalbumin, one hour
RAW 264.7 macrophages = test: RAW macrophage cytokine analysis, IL-6 with LPS (Example 3); type: cell-based, mouse; conditions: for inhibition of IL-6 expression in vitro: capsaicin 200 μM, honokiol 20 μM, WA 400 nM
Text: To begin exploring alternative NF-κB inhibitors, the inventors examined the literature for promising candidates. Due to the strong correlation between NF-KB activation and sepsis, cancer and autoimmune disorders, a large library of NF-κB inhibitors have been identified. The inventors first wanted to analyze the potential of a variety small molecule NF-κB inhibitors to inhibit inflammation in vitro in combination with lipopolysaccharide (LPS), a TLR4 agonist. The inventors chose several common commercially available NF-κB inhibitors and tested them in RAW macrophages. […] To determine if immune potentiation was specific to NFkB or general to all anti-inflammatory molecules, the inventors included the most common, FDA approved anti-inflammatory drugs acetaminophen (10 mM) and ibuprofen (800 μM). The inventors treated RAW macrophages with inhibitors and LPS and assayed the supernatant for IL-6 secretion (FIG. 18A).
The inventors examined the activities of the synthesized compounds in order to understand how the various functional groups affect anti-inflammatory action or adaptive immune response (FIGS. 23, 25). The inventors treated RAW macrophages with honokiol derivatives and LPS and analyzed IL-6 expression. The addition of LPS alone without a honokiol derivative gave high levels of IL-6 expression (6848 pg/mL). The addition of honokiol decreased IL-6 levels to 260 pg/mL, a decrease of 26-fold.
RAW macrophage cytokine analysis: RAW 264.7 macrophages were passaged and plated in a cell culture treated 12-well plate at 0.5×10^6 cells/well in 1 mL DMEM containing 10% FBS. Cells were grown for 2 days. Media was exchanged for 1 mL DMEM containing 10% HIFBS. Inhibitors were added at indicated concentrations and incubated for 45 min. After 45 min, LPS was added at 100 ng/mL and incubated at 37° C. and 5% CO2 for 24 h. Cell supernatant was removed and analyzed using BD Cytometric Bead Array Mouse Inflammation Kit.

systemic cytokines = test: Plasma cytokine analysis after OVA/CpG/AddaVax vaccination (Example 3); type: in vivo, mouse; conditions: for systemic MCP-1 / systemic IFN-γ: combined with CpG; for systemic IFN-γ: 24 h; for systemic IL-6 vs CpG alone, dose study / systemic TNF-α vs CpG alone, all doses / systemic TNF-α, comparison between doses: honokiol 200, 400, 800 μg, capsaicin 1, 5, 20 μg
[3] = Pain response observed after vaccination; type: in vivo, mouse; conditions: original dose 20 μg
ovalbumin (OVA) = test: Anti-OVA antibody quantification day 21 (Example 3); type: in vivo, mouse
systemic TNF-α and IL-6 = test: Systemic cytokines after gp120 vaccination; type: in vivo, mouse; conditions: gp120 antigen, 1 h
Procedure: To examine how this would translate in vivo, the inventors vaccinated mice with CpG (50 μg), Pam3CSK4 (20 μg) and R848 (50 μg) using gp120 as the antigen.
Mice were anesthetized lightly with isoflurane and injected intramuscularly in the hind leg with 50 uL containing antigen, adjuvant and PBS. […] CpG dose, 50 μg. SN50, 500 TNF-aN, 30 μg. IL-6N, 30 μg.
Blood was collected from mice at specified time points in 0.2 mL heparin coated collection tubes (VWR Scientific). Serum was isolated via centrifugation 2000×g for 5 min. Supernatant was collected and stored at −80° C. until use. Serum was analyzed using BD Cytometric Bead Array Mouse Th1/Th2/Th17 cytokine kit or Mouse Inflammation cytokine kit according to manufacturer's protocol. Briefly, beads containing antibodies for desired cytokines were mixed with 50 μL serum and 50 μL PE detection reagent and incubated for 2 h. Beads were washed and analyzed using BD Accuri C6 flow cytometer. Data was analyzed using BD Accuri C6 software and Graphpad Prism.

[4] = system: non-human primate (NHP) primary peripheral blood mononuclear cells (PBMCs); test: NHP PBMCs stimulated with LPS with or without SN50; type: cell-based; conditions: 6 h
Procedure: To understand how this may translate to human vaccinations, the inventors treated THP-1 monocytes with […] LPS with or without SN50. […] Additionally, the inventors examined the effects of SN50 on non-human primate (NHP) primary peripheral blood mononuclear cells (PBMCs). The inventors stimulated NHP PBMCs with SN50 and LPS or LPS alone for 6 h and analyzed the cell supernatant for pro-inflammatory cytokines. […] This implies that SN50 may work similarly in NHP and humans as it does in mice.

ovalbumin = test: Anti-ovalbumin antibody titer day 21, AddaVax vaccines (Example 2); type: in vivo, mouse
Text: The inventors next wanted to examine how capsaicin, honokiol and WA would work with other TLR agonists. Additionally, the inventors wanted to compare these inhibitors to the most commonly used anti-inflammatory drugs, ibuprofen and acetaminophen. The inventors formulated the vaccines using AddaVax, an oil-in-water emulsion to ensure solubility of the inhibitors. The inventors used either CpG, a TLR 9 agonist or Pam3CSK4, a TLR 1/2 agonist as the immune adjuvant and ovalbumin as the antigen. The inventors analyzed systemic cytokines one hour post-vaccination. […] On day 21 the inventors analyzed the anti-ovalbumin antibody titer.

[5] = inhibitor 45 min before 100 ng/mL LPS, 3 h
[6] = 100 μg OVA, 50 μg CpG + inhibitor, AddaVax, 1 h
[7] = 100 μg OVA, 50 μg CpG, AddaVax, 1 h

CC1=C(CO)C(=O)O[C@@H]([C@@H](C)[C@H]2CC[C@H]3[C@@H]4C[C@H]5O[C@]56[C@@H](O)C=CC(=O)[C@]6(C)[C@H]4CC[C@]23C)C1 [WA, Withaferin A]
systemic IL-6 (systemic TNF-a and IL-6 [1]): about a two-fold decrease in IL-6 levels
systemic TNF-a (systemic TNF-a and IL-6 [1]): no change in systemic TNF-a levels compared to CpG alone
IL-6 expression (RAW macrophages; [5]): decreases in proinflammatory cytokine activity without entirely blocking expression; also recorded: completely inhibited IL-6 expression
systemic IL-6 (systemic TNF-a and IL-6 [2]): less effective at decreasing systemic IL-6 levels
inhibition of IL-6 expression in vitro (RAW 264.7 macrophages): most effective at inhibiting IL-6 expression in vitro
decrease of systemic TNF-α vs CpG (systemic cytokines; [6]): 1.8 fold
systemic IL-6 (systemic cytokines; [6]): did not decrease IL-6 expression significantly

COc1cc(CNC(=O)CCCCC=CC(C)C)ccc1O [capsaicin, 8-methyl-N-vanillyl-6-nonenamide]
systemic IL-6 (systemic TNF-a and IL-6 [1]): IL-6 levels consistent with PBS injection
systemic TNF-a (systemic TNF-a and IL-6 [1]): returning the systemic TNF-a levels to background
IL-6 expression (RAW macrophages; [5]): reduced levels of IL-6
pain response [3]: pain response was observed
systemic IL-6 (systemic TNF-a and IL-6 [2]): decreased to levels consistent with PBS
systemic TNF-a (systemic TNF-a and IL-6 [2]): comparable to PBS alone
anti-OVA antibodies in the serum vs CpG alone (ovalbumin (OVA); 1 μg and 5 μg): did not change level of anti-OVA antibodies in the serum compared to CpG alone
anti-OVA antibodies in the serum vs CpG alone (ovalbumin (OVA); 20 μg): significantly increased serum levels
inhibition of IL-6 expression in vitro (RAW 264.7 macrophages): most effective at inhibiting IL-6 expression in vitro
decrease of systemic TNF-α vs CpG (systemic cytokines; [6]): 28 fold
reduction of systemic IL-6 vs CpG (systemic cytokines; [6]): 20 fold
systemic IL-6 (systemic cytokines; [7]): 47.4 pg/mL
systemic MCP-1 (systemic cytokines): slightly elevated MCP-1 levels
systemic IFN-γ (systemic cytokines): increased IFN-γ levels at 24 h compared to CpG alone
systemic IL-6 vs CpG alone, dose study (systemic cytokines; 1 h): only decreased with 400 μg and 800 μg honokiol and 20 μg capsaicin
systemic TNF-α vs CpG alone, all doses (systemic cytokines; 1 h): decreased TNF-α levels significantly across all doses compared to CpG alone
systemic TNF-α, comparison between doses (systemic cytokines; 1 h): Doses of 5 μg and 20 μg decreased levels of TNF-α significantly more than 1 μg

Pam3CSK4
systemic TNF-α and IL-6, effect of adding SN50 to the named adjuvant (systemic TNF-α and IL-6): significant decrease in systemic cytokines

COc1cc(O)cc(O)c1C(=O)/C=C/c1ccccc1 [cardamonin, Cardamonin]
systemic TNF-a (systemic TNF-a and IL-6 [1]): no change in systemic TNF-a levels compared to CpG alone
IL-6 expression (RAW macrophages; [5]): completely inhibited IL-6 expression
IL-6 expression (RAW macrophages; inhibitor 45 min before 100 ng/mL LPS, 3 h, listed as Cardamonin): complete reduction of IL-6 to background levels

lipopolysaccharide [LPS]
TNF-α and IL-6 in the cell supernatant [4]: high levels of TNF-α and IL-6
IL-6 expression (RAW macrophages; 100 ng/mL LPS, 3 h post-activation): 362 pg/mL
IL-6 expression (RAW 264.7 macrophages; honokiol derivative study): 6848 pg/mL

Oc1ccc(C=Cc2cc(O)cc(O)c2)cc1 [resveratrol]
IL-6 expression (RAW macrophages; [5]): decreases in proinflammatory cytokine activity without entirely blocking expression

CC(/C=C/C(=O)NO)=C\[C@@H](C)C(=O)c1ccc(N(C)C)cc1 [TSA]
IL-6 expression (RAW macrophages; [5]): complete reduction of IL-6 to background levels

C=CCc1ccc(O)c(-c2ccc(O)c(CC=C)c2)c1 [honokiol]
systemic IL-6 (systemic TNF-a and IL-6 [1]): about a two-fold decrease in IL-6 levels
systemic TNF-a (systemic TNF-a and IL-6 [1]): reduced the TNF-a levels by two-fold
IL-6 expression (RAW macrophages; [5]): decreases in proinflammatory cytokine activity without entirely blocking expression; also recorded: reduced levels of IL-6
decrease in systemic IL-6 (systemic TNF-a and IL-6 [2]): 4 fold
anti-OVA antibodies vs CpG alone, all doses (ovalbumin (OVA); honokiol 200, 400, 800 μg): all doses of honokiol increased levels of anti-OVA antibodies compared to CpG alone
dose with the highest anti-OVA antibody level (ovalbumin (OVA); honokiol 200, 400, 800 μg): 400 µg
inhibition of IL-6 expression in vitro (RAW 264.7 macrophages): most effective at inhibiting IL-6 expression in vitro
IL-6 expression (RAW 264.7 macrophages; honokiol derivative study): 260 pg/mL
decrease of IL-6 vs LPS alone (RAW 264.7 macrophages; honokiol derivative study): 26 fold
decrease of systemic TNF-α vs CpG (systemic cytokines; [6]): 2.3 fold
reduction of systemic IL-6 vs CpG (systemic cytokines; [6]): 3.5 fold
systemic IL-6 (systemic cytokines; [7]): 266 pg/mL
systemic MCP-1 (systemic cytokines): slightly elevated MCP-1 levels
systemic IFN-γ (systemic cytokines): increased IFN-γ levels at 24 h compared to CpG alone
systemic IL-6 vs CpG alone, dose study (systemic cytokines; 1 h): only decreased with 400 μg and 800 μg honokiol and 20 μg capsaicin
systemic TNF-α vs CpG alone, all doses (systemic cytokines; 1 h): significant decrease in TNF-α expression compared to CpG alone
systemic TNF-α, comparison between doses (systemic cytokines; 1 h): no significant difference between the different doses

COc1cc(O)c2c(c1)/C=C/C[C@H](O)[C@H](O)C(=O)/C=C\C[C@H](C)OC2=O [5-z-o, 5Z-7-Oxozeaenol]
IL-6 expression (RAW macrophages; [5]): complete reduction of IL-6 to background levels; also recorded: completely inhibited IL-6 expression

COc1cc(/C=C/C(=O)CC(=O)/C=C/c2ccc(O)c(OC)c2)ccc1O [curcumin]
systemic IL-6 (systemic TNF-a and IL-6 [1]): did not significantly alter the IL-6 levels
systemic TNF-a (systemic TNF-a and IL-6 [1]): increasing the average expression levels
IL-6 expression (RAW macrophages; [5]): did not demonstrate a change in IL-6 activity in vitro

CC(C)Cc1ccc(C(C)C(=O)O)cc1 (stereo not shown) [ibuprofen]
anti-ovalbumin antibody titer (ovalbumin): decreases in antibody titer
systemic IL-6 (systemic TNF-a and IL-6 [2]): less effective at decreasing systemic IL-6 levels
anti-OVA antibody level lower than CpG alone (ovalbumin (OVA)): 3.2 fold
decrease of systemic TNF-α vs CpG (systemic cytokines; [6]): 1.4 fold
systemic IL-6 (systemic cytokines; [6]): did not decrease IL-6 expression significantly
systemic TNF-α (systemic cytokines; [7]): 738 pg/mL

CC(=O)Nc1ccc(O)cc1 [acetaminophen]
anti-ovalbumin antibody titer (ovalbumin): decreases in antibody titer
systemic IL-6 (systemic TNF-a and IL-6 [2]): less effective at decreasing systemic IL-6 levels
anti-OVA antibody level lower than CpG alone (ovalbumin (OVA)): 2.4 fold
decrease of systemic TNF-α vs CpG (systemic cytokines; [6]): 1.8 fold
systemic IL-6 (systemic cytokines; [6]): did not decrease IL-6 expression significantly

O=c1cc(-c2ccc(O)c(O)c2)oc2cc(O)cc(O)c12 [luteolin]
IL-6 expression (RAW macrophages; [5]): decreases in proinflammatory cytokine activity without entirely blocking expression

CCOCc1nc2c(N)nc3ccccc3c2n1CC(C)(C)O [R848]
systemic TNF-α and IL-6, effect of adding SN50 to the named adjuvant (systemic TNF-α and IL-6): significant decrease in systemic cytokines

O=C(/C=C/c1ccc(O)c(O)c1)OCCc1ccccc1 [CAPE, Caffeic acid phenethyl ester]
systemic IL-6 (systemic TNF-a and IL-6 [1]): about a two-fold decrease in IL-6 levels
systemic TNF-a (systemic TNF-a and IL-6 [1]): no change in systemic TNF-a levels compared to CpG alone
IL-6 expression (RAW macrophages; [5]): complete reduction of IL-6 to background levels; also recorded: completely inhibited IL-6 expression

Source: patent publication US20210346495A1, “METHODS AND COMPOSITIONS COMPRISING AN NFKB INHIBITOR AND AN ADJUVANT” (priority 2018, published 2021)
